# Results from ChEMBL document CHEMBL4610129, “Discovery of Novel Selective and Orally Bioavailable Phosphodiesterase-1 Inhibitors for the Efficient Treatment of Idiopathic Pulmonary Fibrosis” (J Med Chem, 2020).
# The source made the active and inactive calls. No cut-off for these calls is given here.
# Legend:
# [1] = molecular target: High affinity cAMP-specific and IBMX-insensitive 3',5'-cyclic phosphodiesterase 8A (Homo sapiens, UniProt O60658); experiment: Inhibition of PDE8A1 (480 to 820 residues) (unknown origin) using [3H]-cAMP substrate incubated for 15 mins by liquid scintillation counting method relative to control
# Sequence of High affinity cAMP-specific and IBMX-insensitive 3',5'-cyclic phosphodiesterase 8A (O60658 whole entry, the tested form may be a part): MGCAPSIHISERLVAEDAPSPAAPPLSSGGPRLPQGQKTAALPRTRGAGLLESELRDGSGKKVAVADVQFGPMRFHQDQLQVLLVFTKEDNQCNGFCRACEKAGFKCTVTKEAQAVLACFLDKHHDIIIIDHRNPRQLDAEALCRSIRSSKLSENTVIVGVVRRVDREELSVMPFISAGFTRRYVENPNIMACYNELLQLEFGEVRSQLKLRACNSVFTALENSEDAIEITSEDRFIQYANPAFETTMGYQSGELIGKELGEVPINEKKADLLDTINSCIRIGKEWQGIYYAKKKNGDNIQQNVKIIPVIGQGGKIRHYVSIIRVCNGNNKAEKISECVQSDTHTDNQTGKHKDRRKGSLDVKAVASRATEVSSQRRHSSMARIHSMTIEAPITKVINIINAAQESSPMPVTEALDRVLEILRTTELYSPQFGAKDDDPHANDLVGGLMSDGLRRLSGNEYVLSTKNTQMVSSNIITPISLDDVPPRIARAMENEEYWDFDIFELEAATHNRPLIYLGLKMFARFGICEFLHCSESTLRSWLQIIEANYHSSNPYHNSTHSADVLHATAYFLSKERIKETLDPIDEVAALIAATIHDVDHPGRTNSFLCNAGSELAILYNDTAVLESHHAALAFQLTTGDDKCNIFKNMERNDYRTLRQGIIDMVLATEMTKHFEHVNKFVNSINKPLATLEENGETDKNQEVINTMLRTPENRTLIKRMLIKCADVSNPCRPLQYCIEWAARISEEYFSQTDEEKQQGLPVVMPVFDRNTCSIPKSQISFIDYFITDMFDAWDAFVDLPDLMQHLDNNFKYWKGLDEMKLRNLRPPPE
# [2] = AUC (0 to infinity) in Sprague-Dawley rat at 2.5 mg/kg, iv; type: ADME, organism-based; set-up: dose 2.5 mg/kg, time infinity, route intravenous; details: in vivo
# [3] = MRT (0 to t) in Sprague-Dawley rat at 2.5 mg/kg, iv; type: ADME, organism-based; details: in vivo
# Cytochrome P450 3A4 [4] = molecular target: T1, Cytochrome P450 3A4 (Homo sapiens, UniProt P08684); experiment: Inhibition of human CYP3A4 using midazolam as substrate; type: ADME
# T1 sequence (P08684 whole entry): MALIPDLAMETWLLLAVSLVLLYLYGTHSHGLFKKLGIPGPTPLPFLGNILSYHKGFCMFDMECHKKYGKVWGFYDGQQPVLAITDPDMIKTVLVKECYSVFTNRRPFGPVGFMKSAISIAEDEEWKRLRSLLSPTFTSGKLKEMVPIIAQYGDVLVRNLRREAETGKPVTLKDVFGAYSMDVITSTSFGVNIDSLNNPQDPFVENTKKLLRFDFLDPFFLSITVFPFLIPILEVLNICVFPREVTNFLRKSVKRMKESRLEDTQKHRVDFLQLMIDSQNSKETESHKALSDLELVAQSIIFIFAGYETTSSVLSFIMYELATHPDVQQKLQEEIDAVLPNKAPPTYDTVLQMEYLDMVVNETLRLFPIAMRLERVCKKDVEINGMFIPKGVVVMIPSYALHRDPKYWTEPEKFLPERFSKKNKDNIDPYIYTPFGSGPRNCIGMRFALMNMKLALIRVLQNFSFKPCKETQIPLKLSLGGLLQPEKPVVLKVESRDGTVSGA
# Homo sapiens = organism: Homo sapiens; experiment: Anti-pulmonary fibrosis activity in human HLF assessed as reduction in TGF-beta-induced myofibroblast differentiation by measuring reduction in alpha-SMA protein expression incubated for 48 hrs by immunofluorescence staining analysis; type: functional
# Cytochrome P450 3A4 [5] = molecular target: T1, Cytochrome P450 3A4; experiment: Inhibition of human CYP3A4 using testosterone as substrate; type: ADME
# Rattus norvegicus = experiment: Anti-pulmonary fibrosis activity in Sprague-Dawley rat model of BLM-induced idiopathic pulmonary fibrosis assessed as reduction in peak inspiratory flow at 10 mg/kg, po dosed daily for 28 days by mka noninvasive pulmonary monitoring system based method; type: functional, organism-based
# [6] = Half life in rat liver microsomes; type: ADME, Microsome
# [7] = molecular target: High affinity 3',5'-cyclic-AMP phosphodiesterase 7A (Homo sapiens, UniProt Q13946); experiment: Inhibition of PDE7A1 (130 to 482 residues) (unknown origin) using [3H]-cAMP substrate incubated for 15 mins by liquid scintillation counting method relative to control
# Sequence of High affinity 3',5'-cyclic-AMP phosphodiesterase 7A (Q13946 whole entry, the tested form may be a part): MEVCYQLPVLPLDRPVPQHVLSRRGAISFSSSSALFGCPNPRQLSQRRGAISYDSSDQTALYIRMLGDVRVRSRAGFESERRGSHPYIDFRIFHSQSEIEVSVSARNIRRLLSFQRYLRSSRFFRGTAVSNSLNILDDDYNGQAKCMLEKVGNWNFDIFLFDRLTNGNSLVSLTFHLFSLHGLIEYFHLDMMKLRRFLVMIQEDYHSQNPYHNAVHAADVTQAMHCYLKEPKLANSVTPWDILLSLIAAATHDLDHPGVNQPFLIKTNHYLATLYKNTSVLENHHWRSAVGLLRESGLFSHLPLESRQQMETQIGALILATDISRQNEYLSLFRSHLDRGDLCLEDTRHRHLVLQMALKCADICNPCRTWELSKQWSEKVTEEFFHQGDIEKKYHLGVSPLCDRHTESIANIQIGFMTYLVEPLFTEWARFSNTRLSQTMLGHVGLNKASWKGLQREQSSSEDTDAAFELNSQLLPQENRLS
# [8] = molecular target: cAMP and cAMP-inhibited cGMP 3',5'-cyclic phosphodiesterase 10A (Homo sapiens, UniProt Q9Y233); experiment: Inhibition of PDE10A (449 to 770 residues) (unknown origin) using [3H]-cAMP substrate incubated for 15 mins by liquid scintillation counting method relative to control
# Sequence of cAMP and cAMP-inhibited cGMP 3',5'-cyclic phosphodiesterase 10A (Q9Y233 whole entry, the tested form may be a part): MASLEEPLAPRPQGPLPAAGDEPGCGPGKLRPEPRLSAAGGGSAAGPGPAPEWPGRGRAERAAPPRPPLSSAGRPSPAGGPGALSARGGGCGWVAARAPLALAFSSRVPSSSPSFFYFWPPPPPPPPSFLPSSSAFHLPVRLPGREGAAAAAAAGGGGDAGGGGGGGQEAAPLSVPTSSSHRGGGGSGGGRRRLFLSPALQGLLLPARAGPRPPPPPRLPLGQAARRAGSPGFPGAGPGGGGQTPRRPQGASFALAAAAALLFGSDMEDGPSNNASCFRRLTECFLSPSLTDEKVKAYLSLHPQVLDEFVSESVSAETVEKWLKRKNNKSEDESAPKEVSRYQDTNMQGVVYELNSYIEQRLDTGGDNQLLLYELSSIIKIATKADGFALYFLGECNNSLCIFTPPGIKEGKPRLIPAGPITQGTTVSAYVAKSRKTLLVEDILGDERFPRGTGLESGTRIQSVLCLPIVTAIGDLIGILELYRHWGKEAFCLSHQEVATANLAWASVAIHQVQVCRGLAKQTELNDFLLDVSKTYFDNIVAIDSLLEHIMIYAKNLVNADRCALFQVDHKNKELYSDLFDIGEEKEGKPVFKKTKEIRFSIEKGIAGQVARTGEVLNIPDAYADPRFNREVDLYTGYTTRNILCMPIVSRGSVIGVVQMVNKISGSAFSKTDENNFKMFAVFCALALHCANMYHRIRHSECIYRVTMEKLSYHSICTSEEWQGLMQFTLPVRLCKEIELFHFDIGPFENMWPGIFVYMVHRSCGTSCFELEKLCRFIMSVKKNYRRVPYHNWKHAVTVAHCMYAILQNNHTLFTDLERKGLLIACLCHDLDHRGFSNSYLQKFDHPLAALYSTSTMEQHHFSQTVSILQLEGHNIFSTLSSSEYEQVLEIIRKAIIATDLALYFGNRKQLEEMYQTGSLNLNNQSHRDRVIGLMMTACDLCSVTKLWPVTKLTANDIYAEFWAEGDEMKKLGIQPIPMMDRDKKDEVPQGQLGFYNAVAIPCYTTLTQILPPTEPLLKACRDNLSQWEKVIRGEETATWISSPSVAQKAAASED
# [9] = molecular target: High affinity cGMP-specific 3',5'-cyclic phosphodiesterase 9A (Homo sapiens, UniProt O76083); experiment: Inhibition of PDE9A2 (181 to 506 residues) (unknown origin) using [3H]-cGMP substrate incubated for 15 mins by liquid scintillation counting method relative to control
# Sequence of High affinity cGMP-specific 3',5'-cyclic phosphodiesterase 9A (O76083 whole entry, the tested form may be a part): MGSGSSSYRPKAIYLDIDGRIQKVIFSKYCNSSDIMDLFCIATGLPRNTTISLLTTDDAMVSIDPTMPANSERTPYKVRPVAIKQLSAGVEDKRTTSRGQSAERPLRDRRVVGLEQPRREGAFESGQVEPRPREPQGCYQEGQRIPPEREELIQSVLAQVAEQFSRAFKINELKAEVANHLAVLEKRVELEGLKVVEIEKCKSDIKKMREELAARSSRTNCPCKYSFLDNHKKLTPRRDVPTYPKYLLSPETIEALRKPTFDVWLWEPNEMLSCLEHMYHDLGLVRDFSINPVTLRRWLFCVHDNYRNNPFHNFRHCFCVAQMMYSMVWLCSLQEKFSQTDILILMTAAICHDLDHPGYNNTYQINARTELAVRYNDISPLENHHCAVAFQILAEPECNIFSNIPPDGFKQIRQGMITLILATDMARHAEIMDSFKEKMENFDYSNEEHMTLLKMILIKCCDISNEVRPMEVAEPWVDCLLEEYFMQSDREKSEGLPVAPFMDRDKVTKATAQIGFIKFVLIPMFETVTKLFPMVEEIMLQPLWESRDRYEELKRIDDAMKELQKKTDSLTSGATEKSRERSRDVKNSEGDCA
compound,measurement,setting,value
C[C@@H](Nc1nc2c(cnn2C(C)(C)C)c(=O)n1Cc1ccc(F)cc1)c1ccc(Cl)cc1,IC50,[1],2.02 µM
same,AUC(0-inf),[2],2100 ng·h/mL
same,MRT last,[3],5.81 h
same,IC50,Cytochrome P450 3A4 [4],> 25 µM
same,Activity,Homo sapiens,Dose-dependent effect
same,IC50,Cytochrome P450 3A4 [5],> 25 µM
same,Activity,Rattus norvegicus,Active
same,half-life,[6],0.263 to 0.267 h
same,IC50,[7],> 10 µM
same,IC50,[8],1.77 µM
same,IC50,[9],> 10 µM
